This experiment deals with Human Cav2.3 channel. As to the kind of experiment: Human Cav2.3 channel calcium-influx assay. It is filed as cell-based. Particulars: Fluo8 fluorescence, HEK-293 T-Rex/Kir2.1/Cav2.3e cells, without pluronic acid. How it is done: HEK-293 T-Rex cells were transfected with pcDNA3.1-Kir2.1 to generate a stable cell line. After antibiotic selection, the obtained stable pools were analysed using FLIPR^TETRA (membrane potential assay), and a limiting dilution was performed and a HEK-293 T-Rex/Kir2.1 clone was selected. The clone was transfected with pcDNA3.1-Cav2.3e and pBud-Cav-β4-α2δ1 to generate a stable cell line where the Cav2.3e expression is inducible. After antibiotic selection, functional clone pool analysis and two successive limiting dilutions, the final clone underwent a qPCR analysis and a biophysical and pharmacological validation using patch-clamp.
A compound plate, containing 10 test compounds in eight-points dose response with n=4, was prepared. Test compounds dose response curves were prepared in automated fashion in 100% DMSO at CyBio Felix and starting from a stock solution in 100% DMSO; a defined volume was serially moved into destination wells pre-filled with the desired DMSO volume; stock solution concentration volumes were dependent on the final compounds concentrations to be tested and the final DMSO content used in the assay. For the assay test compounds dose response curves ranged from 30 μM and half log dilution with 0.3% final DMSO. In order to obtain the 8-points dose response curve all the concentrations were created by starting from a 10 mM DMSO stock solution and then moving 9.5 μL into a destination well pre-filled with 20.5 μL of 100% DMSO and repeating this step seven times. This initial step was done into 96 MTP plates, 10 compounds/plate. One 384 MTP was then reformatted to contain all the 10 compounds at 8 concentrations, quadruplicate data points. This so obtained 384 MTP compound plate served as source plate in a “mother to child” process with a CyBi®-Well dispenser in which 0.7 μL of compounds were moved into a destination plate pre-filled with 57.6 μL of Tyrode's buffer 0 mM K+, thus obtaining 4× concentrated compounds solution. In columns 1-2 and 23-24 the control wells were added. Both “source” compound plate and “destination” compound plate were barcoded and a relationship between the two plates was thus generated.
The day before the experiment, cells were detached by gentle wash with DPBS, followed by 5 min incubation at 37° C. with Trypsin solution. Detached cells were diluted with OptiMEM+Doxycycline at 0.2 μg/mL, counted and plated in Poly-D-Lysine coated black/clear bottom (15.000 c/well in 20 μl/well) by the use of a MATRIX WellMate dispenser. Plates were placed into a humidified incubator at 37° C. with 5% CO2 until the experimental day. 24 h after seeding 10 μL/well of 1.5× Fluo8 NW dye solution prepared in Tyrode's buffer 0 mM K* were added on top of the seeding medium. Cell plates were incubated for 40-60 min at RT in the dark. We then Injected off-line 10 μL/well of test compounds and controls 4× concentrated in Tyrode's Buffer 0 mM K+ with the CyBi®-Well instrument. Cell plates were incubated 3 minutes at RT. Finally, we injected 20 μL/well of 3× concentrated activator solution (K20-Na130-Ca2 buffer: 20 mM KCl, 130 mM NaCl, 2 mM CaCl2, 10 mM HEPES, 10 mM Glucose, final concentrations, prepared starting from “K0-Na150-Ca2” and “K150-Na0-Ca2” buffers) at FDSS7000EX instrument and read emitted fluorescence for 130 seconds.
Data analysis was performed with Genedata Screener® software and reported compounds activity as % effect in relation to the normalization standards. The Kinetic Response Value (KRV) is calculated as follows:
KRV=Maximal fluorescence recorded from second 5 to second 130 minus baseline fluorescence, computed as average from second 1 to second 2, of the kinetic trace. The KRV was normalized versus Neutral Controls and Inhibitor Controls in order to obtain the Activity[%] for each well. […] Therefore, the compound activity values were scaled (based on the two references) to a common range (two-point normalization). […]
Take `CCN([C@H](c1ccc(F)cc1)C(F)(F)F)S(=O)(=O)c1ccc2nncn2n1` [Example 192, (R)—N-ethyl-N-(2,2,2-trifluoro-1-(4-fluorophenyl)ethyl)-[1,2,4]triazolo[4,3-b]pyridazine-6-sulfonamide]: the “Cav2.3 (pIC50)” value came out at 6.18.
The same measure for `CCN(C(c1cccc(C)c1)C(F)(F)F)S(=O)(=O)c1cncc(C#N)c1` (stereo not drawn) [Example 113, 5-Cyano-N-ethyl-N-(2,2,2-trifluoro-1-(m-tolyl)ethyl)pyridine-3-sulfonamide]: 6.96.
The figure for `CCN([C@@H](c1ccc(F)cc1)C(F)(F)F)S(=O)(=O)c1cncnc1` [Example 59, (S)—N-ethyl-N-(2,2,2-trifluoro-1-(4-fluorophenyl)ethyl)pyrimidine-5-sulfonamide] is 5.21; for `CCN(C(c1ccc(F)cc1)C(F)(F)F)S(=O)(=O)C1CCOCC1` (stereo not drawn) [Example 61, N-ethyl-N-(2,2,2-trifluoro-1-(4-fluorophenyl)ethyl)tetrahydro-2H-pyran-4-sulfonamide] it is 7.01.
The figure for `CCN([C@H](c1ccc(F)cc1)C(F)(F)F)S(=O)(=O)c1ccc2cn[nH]c2c1` [Example 159, (R)—N-ethyl-N-(2,2,2-trifluoro-1-(4-fluorophenyl)ethyl)-1H-indazole-6-sulfonamide] is 6.33; for `CCN([C@H](c1cccc(F)c1)C(F)(F)F)S(=O)(=O)c1cncc(C#N)c1` [Example 111, (R)-5-Cyano-N-ethyl-N-(2,2,2-trifluoro-1-(3-fluorophenyl)ethyl)pyridine-3-sulfonamide] it is 7.63.
In the case of `CN([C@H](c1ccc(Cl)cc1)C(F)(F)F)S(=O)(=O)c1cnc2[nH]cnc2c1` [Example 193, (R)—N-(1-(4-chlorophenyl)-2,2,2-trifluoroethyl)-N-methyl-3H-imidazo[4,5-b]pyridine-6-sulfonamide], the “Cav2.3 (pIC50)” value was found to be 6.65.
On to `CCN(C(c1cccc(C(F)(F)F)c1)C(F)(F)F)S(=O)(=O)c1cncc(C#N)c1` (stereo not drawn) [Example 85, 5-Cyano-N-ethyl-N-(2,2,2-trifluoro-1-(3-(trifluoromethyl)phenyl)ethyl)pyridine-3-sulfonamide], for which the “Cav2.3 (pIC50)” value turned out to be 6.34.
Consider `CN([C@H](c1ccc(F)cc1)C(F)(F)F)S(=O)(=O)c1ccc(C#N)s1` [Example 6, (R)-5-cyano-N-methyl-N-(2,2,2-trifluoro-1-(4-fluorophenyl)ethyl)thiophene-2-sulfonamide], for which the “Cav2.3 (pIC50)” value amounted to 6.22.
Turning to `CCN([C@@H](c1ccccc1C(F)(F)F)C(F)(F)F)S(=O)(=O)c1cncc(C#N)c1` [Example 247, (S)-5-cyano-N-ethyl-N-(2,2,2-trifluoro-1-(2-(trifluoromethyl)phenyl)ethyl)pyridine-3-sulfonamide], the “Cav2.3 (pIC50)” value worked out at 5.11.
The same measure for `CCN(C(c1ccc(F)cc1)C(F)(F)F)S(=O)(=O)c1cncc(N2CCCC2)c1` (stereo not drawn) [Example 94, N-ethyl-5-(pyrrolidin-1-yl)-N-(2,2,2-trifluoro-1-(4-fluorophenyl)ethyl)pyridine-3-sulfonamide]: 5.85.
The same measure for `COc1cc(S(=O)(=O)N(C)[C@H](c2ccc(Cl)cc2)C(F)(F)F)cnn1` [Example 229, (R)—N-(1-(4-chlorophenyl)-2,2,2-trifluoroethyl)-6-methoxy-N-methylpyridazine-4-sulfonamide]: 6.93; for `CN([C@H](c1ccc(C(F)(F)F)cc1)C(F)(F)F)S(=O)(=O)c1ccc2nccn2c1` [Example 234, (R)—N-methyl-N-(2,2,2-trifluoro-1-(4-(trifluoromethyl)phenyl)ethyl)imidazo[1,2-a]pyridine-6-sulfonamide]: 6.38; for `CCN([C@@H](c1ccc(F)cc1)C(F)(F)F)S(=O)(=O)C1CCOCC1` [Example 62, (S)—N-ethyl-N-(2,2,2-trifluoro-1-(4-fluorophenyl)ethyl)tetrahydro-2H-pyran-4-sulfonamide]: 5.20.
The same measure for `CCN([C@@H](c1cccc(Cl)c1)C(F)(F)F)S(=O)(=O)c1cncc(C#N)c1` [Example 252, (S)—N-(1-(3-chlorophenyl)-2,2,2-trifluoroethyl)-5-cyano-N-ethylpyridine-3-sulfonamide]: 5.71.
`CCN(C(c1ccc(F)cc1)C(F)(F)F)S(=O)(=O)c1sc(C#N)cc1C` (stereo not drawn) [Example 45, 5-Cyano-N-ethyl-3-methyl-N-(2,2,2-trifluoro-1-(4-fluorophenyl)ethyl)thiophene-2-sulfonamide]: the “Cav2.3 (pIC50)” value is 6.07.
As to `CCN([C@@H](c1ccc(F)c(OC)c1)C(F)(F)F)S(=O)(=O)c1cncc(C#N)c1` [Example 258, (S)-5-cyano-N-ethyl-N-(2,2,2-trifluoro-1-(4-fluoro-3-methoxyphenyl)ethyl)pyridine-3-sulfonamide], the “Cav2.3 (pIC50)” value was 5.87.
The figure for `CCN([C@H](c1ccc(F)cc1)C(F)(F)F)S(=O)(=O)c1ccc2c(c1)COC2` [Example 38, (R)—N-ethyl-N-(2,2,2-trifluoro-1-(4-fluorophenyl)ethyl)-1,3-dihydroisobenzofuran-5-sulfonamide] is 6.91; for `CCN([C@H](c1ccc(F)cc1)C(F)(F)F)S(=O)(=O)c1ccc2nc(N)sc2c1` [Example 154, (R)-2-amino-N-ethyl-N-(2,2,2-trifluoro-1-(4-fluorophenyl)ethyl)benzo[d]thiazole-6-sulfonamide] it is 6.70.
The same measure for `CCN(C(c1ccc(F)cc1)C(F)(F)F)S(=O)(=O)c1cncnc1` (stereo not drawn) [Example 57, N-ethyl-N-(2,2,2-trifluoro-1-(4-fluorophenyl)ethyl)pyrimidine-5-sulfonamide]: 6.96; for `CCN([C@H](c1ccccc1F)C(F)(F)F)S(=O)(=O)c1cncc(C#N)c1` [Example 116, (R)-5-Cyano-N-ethyl-N-(2,2,2-trifluoro-1-(2-fluorophenyl)ethyl)pyridine-3-sulfonamide]: 5.81.
The same measure for `CCN([C@H](c1ccc(C(F)(F)F)cc1)C(F)(F)F)S(=O)(=O)c1ccn2ncnc2c1` [Example 216, (R)—N-ethyl-N-(2,2,2-trifluoro-1-(4-(trifluoromethyl)phenyl)ethyl)-[1,2,4]triazolo[1,5-a]pyridine-7-sulfonamide]: 7.29; for `CCN([C@H](c1ccc(F)c(C)c1)C(F)(F)F)S(=O)(=O)c1cncc(C#N)c1` [Example 246, (R)-5-cyano-N-ethyl-N-(2,2,2-trifluoro-1-(4-fluoro-3-methylphenyl)ethyl)pyridine-3-sulfonamide]: 7.31.
As for `Cc1ncc(S(=O)(=O)N(C)C(c2ccc(F)cc2)C(F)(F)F)cn1` (stereo not drawn) [Example 74, N,2-dimethyl-N-(2,2,2-trifluoro-1-(4-fluorophenyl)ethyl)pyrimidine-5-sulfonamide], the “Cav2.3 (pIC50)” value came out at 5.83.
The same measure for `CCN([C@H](c1cccc(C)c1)C(F)(F)F)S(=O)(=O)c1cncc(C#N)c1` [Example 114, (R)-5-cyano-N-ethyl-N-(2,2,2-trifluoro-1-(m-tolyl)ethyl)pyridine-3-sulfonamide]: 6.87; for `CCN(C(c1ccc(F)cc1)C(F)(F)F)S(=O)(=O)c1ccc(C2=CCOCC2)s1` (stereo not drawn) [Example 87, 5-(3,6-Dihydro-2H-pyran-4-yl)-N-ethyl-N-(2,2,2-trifluoro-1-(4-fluorophenyl)ethyl)thiophene-2-sulfonamide]: 5.50.
Regarding `CCN(C(c1ccc(F)cc1)C(F)(F)F)S(=O)(=O)c1ccc(N2CCOCC2)s1` (stereo not drawn) [Example 89, N-ethyl-5-morpholino-N-(2,2,2-trifluoro-1-(4-fluorophenyl)ethyl)thiophene-2-sulfonamide], the “Cav2.3 (pIC50)” value came out at 5.68.
